Like-named read-outs stand apart in the source and are kept apart here.
Legend:
[1] = Measurement method 1-1: in vitro skin-pore absorption into hair follicles and skin tissue; format: in vitro ADME, miniature pig
Excerpt: In measurement method 1-1, the skin of a model animal or the skin reconstructed from skin cells may be employed as a skin model. The model animal from which the skin is taken is not particularly limited, and pig, human, cattle, mouse, or rat are all potential donors. In measurement method 1-1, the skin of a hairy animal is usually employed in order to evaluate the penetrability of a drug through skin pores into hair follicles. Therefore, a mutated hairless animal is usually unsuitable for the model animal. […] Therefore, other than human, pig is preferably employed as a model animal.
The skin is not particularly limited, so long as the skin satisfies the above condition. For example, as described below in the Example, a skin model may be fixed onto a collagen gel.
The conditions for the application of the substance may be arbitrarily determined in accordance with the type of the substance or the object. Usually, the skin to which the substance is applied is incubated at about 37° C. (near the temperature of the human body) over a predetermined time period. The incubation time varies with the intended product form of the substance.
The portion at which the delivery amount of the substance is measured is limited to the region corresponding to the dermis of the skin, since in the region corresponding to the stratum corneum or epidermis of the skin, the hair follicle may be contaminated with epidermal tissue debris or excretions from the sebaceous glands, and thus the exact delivery amount of the substance is difficult to measure.
The method for measuring the delivery amount of the substance is not particularly limited. For example, liquid chromatography (including high-performance liquid chromatography), a fluorescent antibody technique using a fluorescence-labeled antibody, mass spectrometry, or a method using a radioisotope may be employed. Of these, liquid chromatography is preferable, in consideration of convenience.
In the evaluation test, 0.5% pantothenyl ethylether (90% ethanol product) was employed as a substance to be tested, and the skin of a miniature pig (Yucatan Micropig Skin Set: product of Charles River) was employed as a skin model.
The test sample (20 μl) was applied onto the skin sample comprising skin pores 14. The substance was applied onto a region (diameter: 1.5 cm) of the sample; i.e., within an assay ring to which silicon grease was applied. The resultant skin sample 10 was allowed to stand at 37° C. for 16 hours. After having being washed, the sample 10 was separated into the stratum corneum 11, the epidermis 12, and the dermis 13. Subsequently, hair follicles 15 were removed from the dermis 13, and the amount of pantothenyl ethylether contained in the follicles was measured, as a delivery amount per unit weight of the hair follicle, by means of liquid chromatography (NANOSPACE (product of Shiseido Co., Ltd.), eluent: (CH3CN:H2O=3:7), detection wavelength: 210 nm).
The skin sample 10 of the miniature pig was derived from the upper back and lower back (n=3).

[2] = Measurement method 2: sebum transferability through keratinized silicone film into artificial sebum (Franz cell kit); format: in vitro ADME; conditions: 5% isostearyl alcohol, 2% minoxidil composition, 20 μl, 37° C., 24 hours, FIG. 12
Excerpt: The present invention also provides a method for the measurement of skin absorbability of a substance (hereinafter the method will be referred to as “measurement method 2”), which comprises bringing a substance into contact with a first surface of a film that mimics the skin surface layer, a second surface of the film being brought into contact with artificial sebum; and using the degree of transfer of the substance to the artificial sebum as an index, to thereby evaluate the sebum transferability of the substance.
The sebum transferability of a substance may be evaluated through the following procedure: the substance is applied to the stratum corneum side of the thin film, the opposite side of the stratum corneum side being brought into contact with the artificial sebum; the degree of transfer of the substance to the artificial sebum, for example, the amount of the substance transferred to the sebum per unit time, i.e., the amount of the substance contained in the sebum is measured; and the amount of the substance in the sebum is employed as an index, to thereby evaluate the sebum transferability of the substance.
1. […]
The test was carried out under the aforementioned conditions. […] The degree of transfer of minoxidil to the artificial sebum was evaluated on the basis of the concentration of minoxidil contained in the sebum after the elapse of a specified time period. […]

[3] = Measurement method 1-2: in vivo skin-pore absorption, human scalp hair follicles; conditions: 5% isostearyl alcohol, 1% pantothenyl ethylether, 0.5 ml on scalp, 16 hours, vs control, FIG. 8
Protocol: (§1) (2) an in vivo quantification method (hereinafter referred to as “measurement method 1-2”) in which the amount of a substance (e.g., a drug) which is penetrated into the hair follicle is determined by applying the substance to the human scalp, removing the hair follicle from the scalp, and measuring the concentration of the substance which is delivered to the hair follicle.
(§2) In measurement method 1-2, a method for the application of a substance such as a drug to the human scalp may be arbitrarily determined in accordance with the characteristics or the intended product form of the substance.
(§3) After the substance is applied to a person participating in the test, several hair strands from the person are removed, and the thus-obtained hair follicles may be stored as hair shafts and/or outer root sheaths. The amount of the substance which is delivered to the subcutaneous portion of the hair shaft and/or the outer root sheath is measured, and the thus-obtained delivery amount of the substance may be employed as an index of the skin-pore absorbability of the substance.
(§4) The delivery amount of the substance may be measured in a manner similar to that of measurement method 1-1.
(§5) Thirty male panelists were enrolled in the test. […] Each of the test samples (0.5 ml for each) was applied to the scalp (area: 1 cm^2) of each male panelist, and then the scalp was left for 16 hours. […]

[4] = in vivo
Protocol: as §1, §2, §3, §4, §5

| Compound | skin-pore absorption of minoxidil (concentration delivered to the hair follicles) ([1]; 5% isostearyl alcohol compared with 5% amine oxide composition, 0.5% minoxidil, FIG. 9B) | skin-pore absorption of β-glycyrrhetinic acid (concentration delivered to the hair follicles) ([1]; 5% isostearyl alcohol compared with 5% amine oxide composition, 0.5% β-glycyrrhetinic acid, FIG. 9A) | concentration of pantothenyl ethylether delivered to hair follicles ([1]; 5% isostearyl alcohol composition vs control, 0.5% pantothenyl ethylether, 20 μl, 37° C., 16 hours, FIG. 4) | concentration of pantothenyl ethylether delivered to the stratum corneum ([1]; 5% isostearyl alcohol composition vs control, FIG. 5A) | concentration of pantothenyl ethylether delivered to the epidermis ([1]; 5% isostearyl alcohol composition vs control, FIG. 5B) | concentration of pantothenyl ethylether delivered to the dermis ([1]; 5% isostearyl alcohol composition vs control, FIG. 5C) | sebum transferability of minoxidil (concentration of minoxidil in the artificial sebum) [2] | concentration of pantothenyl ethylether delivered to the hair follicles (hair shafts and outer root sheaths) [3] | skin-pore absorption of pantothenyl ethylether ([1]; 1% terpene refreshing agent, 0.5% pantothenyl ethylether, vs control, FIGS. 11A and 11B) | skin-pore absorption of pantothenyl ethylether [4] |
| --- | --- | --- | --- | --- | --- | --- | --- | --- | --- | --- |
| CC(C)CCCCCCCCCCCCCCCO [isostearyl alcohol] | accelerates | accelerates | increases significantly | decreased | decreased | slightly increased | enhances | increases |  |  |
| CC12CCC(CC1=O)C2(C)C (stereo not shown) [camphor] |  |  |  |  |  |  |  |  | accelerates | accelerates |
